# Measured values: patent US9351981B2, “Use of PKC-iota inhibitors for the treatment of breast cancer” (UNIVERSITY OF SOUTH FLORIDA, priority 2007, dated 2016)
# How the values were obtained:
# [1] = system: MDA-MB-468 breast cancer cells; experiment: Proliferation of MDA-MB-468 breast cancer cells after ICA-1, viable cell count by Trypan blue exclusion; assay type: cell-based, human; settings: vs vehicle control
# Description: Five thousand cells were plated in T-25 cm^2 flasks. Twenty-four hours post vehicle control or ICA-1 treatment, the number of viable cells was counted by Trypan blue exclusion. Data shown are the mean+/−SD of two independent experiments.
# Briefly, MDA-MB-468 breast cancer cells were treated with 0.1 μM or 0.5 μM ICA-1. Cell viability and cell count were determined 24 hours following addition of either vehicle control or ICA-1.
# IKK-α/IKK-β = experiment: Phosphorylation of IKK-α/IKK-β; assay type: cell-based
# cancer cells [2] = experiment: Chromatin condensation, DAPI staining of the nucleus; assay type: cell-based
# From the text: (§1) In addition, the present inventors have discovered that ICA-1 promotes apoptosis of cancer cells.
# cancer cells [3] = experiment: DNA fragmentation, TUNEL assay; assay type: cell-based
# From the text: as §1
# PKC-ι = molecular target: T1, PKC-ι (Homo sapiens, UniProt P41743); experiment: Inhibition of PKC-ι activity; assay type: biochemical
# T1 sequence (P41743 10-596 limits assumed): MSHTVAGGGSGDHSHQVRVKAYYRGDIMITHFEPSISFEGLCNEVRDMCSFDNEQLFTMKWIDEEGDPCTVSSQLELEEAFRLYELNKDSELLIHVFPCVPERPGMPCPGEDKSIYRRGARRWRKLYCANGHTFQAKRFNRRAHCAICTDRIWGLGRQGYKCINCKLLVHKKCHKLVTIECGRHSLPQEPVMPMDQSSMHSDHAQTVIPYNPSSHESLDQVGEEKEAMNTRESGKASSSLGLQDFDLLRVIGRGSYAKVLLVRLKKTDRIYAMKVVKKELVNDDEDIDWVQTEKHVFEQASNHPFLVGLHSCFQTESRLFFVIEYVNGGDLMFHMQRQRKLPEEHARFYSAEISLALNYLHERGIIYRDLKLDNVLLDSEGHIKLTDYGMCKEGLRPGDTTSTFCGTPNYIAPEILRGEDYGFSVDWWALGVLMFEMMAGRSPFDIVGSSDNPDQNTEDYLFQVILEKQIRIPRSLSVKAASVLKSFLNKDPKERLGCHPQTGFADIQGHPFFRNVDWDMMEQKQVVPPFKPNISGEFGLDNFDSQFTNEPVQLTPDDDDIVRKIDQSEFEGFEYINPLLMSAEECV
structure (smiles),measurement,setting,value
"NC(=O)c1ncn(C2CC(COP(=O)(O)O)C(O)C2O)c1N (stereo not drawn) [ICA-1, 1H-imidazole-4-carboxamide,5-amino-1-[2,3-dihydroxy-4-[(phosphonooxy)methyl]cyclopentyl]-,[1R-(1α, 2β, 3β, 4α)]]",decrease of proliferation of MDA-MB-468 cells,"[1]; 0.1 μM ICA-1, 24 hours post-treatment",77%
same,decrease of proliferation of MDA-MB-468 cells,"[1]; 0.5 μM ICA-1, 24 hours post-treatment, P=0.05",50%
same,phosphorylation of IKK-α/IKK-β,IKK-α/IKK-β,inhibits the phosphorylation
same,chromatin condensation in cancer cells,cancer cells [2],induced chromatin condensation
same,DNA fragmentation in cancer cells,cancer cells [3],induced DNA fragmentation
same,activity of PKC-ι,PKC-ι,potently inhibits
